In data set [1] the test system is Mus musculus. The data set is described as follows: Toxicity in lactating mouse assessed as widespread mammary gland necrosis at 200 mg/kg. The format is organism-based. Also on record: dose 200 mg/kg. The conditions noted are these: in vivo.
Data set [2] deals with Mus musculus. The data set is described as follows: Toxicity in lactating mouse assessed as widespread mammary gland necrosis at 50 to 100 mg/kg. The format is organism-based. Further details: dose 50-100 mg/kg; call rule not given here. The conditions noted are these: in vivo.

Activity data for two molecules are collected here from ChEMBL document CHEMBL1159284, “A Short Enantioselective Synthesis of a Biologically Active Compound from Persea americana” (J Nat Prod, 1995).

`CCCCC/C=C\C/C=C\CCCCCCCC(=O)C[C@H](O)COC(C)=O`: the Activity entry with Mus musculus [1] was “Not Active”.

With `CCCCC/C=C\C/C=C\CCCCCCCC(=O)C[C@@H](O)COC(C)=O`, in the data set on Mus musculus [2], the result was Active.
